Experiment [1] is described as follows: Anti-glycation activity using L-arginine and glucose. Particulars: 70℃, 4 h, 420 nm.
For experiment [2], the system named is RAW264.7 cells, NO production (생쥐의 대식세포인 RAW264.7 세포). The experiment is described as follows: NO production inhibition by GRIESS method in LPS-stimulated RAW264.7 cells (anti-inflammatory). The format is cell-based. Conditions: Mus musculus, LPS 1 μg, 24 h, read-out: NO production inhibition rate. Background: The Griess reaction detects nitrite, a stable product of nitric oxide.

Experiment [3] has as its system B-16 mouse melanoma cell (쥐의 멜라노마 세포). The experiment is described as follows: Melanin production inhibition (whitening), absorbance at 400 nm. The format is cell-based. Particulars: 72 h, 3 days, relative to control, read-out: total melanin inhibition rate.
The test system of experiment [4] is type Ⅰ collagen synthesis in human-derived fibroblasts (제1형 콜라겐; 인간 유래 섬유 아세포). The experiment is described as follows: Type I collagen synthesis promotion in human fibroblasts (PICP EIA kit). The format is cell-based. Conditions: 48 h; for type I collagen production amount: negative control 150.2 ng/ml.
Experiment [5] in a line: DPPH free radical scavenging (antioxidant). Conditions: 37℃, 30 min, 520 nm, concentration removing 50% of free radicals.
Setting [6] is: Homo sapiens, Fibroblast, 10 ppm, relative to control, read-out: collagen production increase rate.

`N=C(N)NN` [Aminoguanidine, reference compound] had a glycation inhibition rate in experiment [1] (55 ppm) of 48.12%.

For orientation: inhibition means the percentage by which the read-out fell short of the control. Take `COc1c(O[C@@H]2O[C@H](CO[C@@H]3OC[C@@H](O)[C@H](O)[C@H]3O)[C@@H](O)[C@H](O)[C@H]2O)cc2occ(-c3ccc(O)cc3)c(=O)c2c1O` [화합물 1, tectorigenin 7-O-xylosylglucoside]: in experiment [2], the inhibition at 100 ppm is 99.5%. For the same compound, the inhibition at 10 ppm in experiment [3] was determined as 48.3%. The “type I collagen production amount” value in experiment [4] (10 ppm) amounted to 202.3 ng/mL. In experiment [4] (setting [6]), the activation at 10 ppm is 34.7%. Also, the glycation inhibition rate in experiment [1] (10 ppm) came out at 41.67%. Besides, the IC50 in experiment [5] came to 0.0015 %w/v.

As to `CNC(=N)NCCC[C@H](N)C(=O)O` [L-NMMA, L-NG-monomethylarginine, reference compound], in experiment [2], the inhibition at 10 ppm worked out at 30.6%.

Consider `OC[C@H]1O[C@@H](Oc2ccc(O)cc2)[C@H](O)[C@@H](O)[C@@H]1O` [알부틴, arbutin, reference compound], for which the inhibition at 100 ppm in experiment [3] (100 ppm) is 47.8%.

Regarding `COc1c(O[C@@H]2O[C@H](CO)[C@@H](O)[C@H](O)[C@H]2O)cc2occ(-c3ccc(O)cc3)c(=O)c2c1O` [화합물 2, tectoridin], the inhibition at 100 ppm in experiment [2] worked out at 99.5%. Moreover, the inhibition at 10 ppm in experiment [3] was 63.1%. The “type I collagen production amount” value in experiment [4] (10 ppm) worked out at 221.9 ng/mL. For the same compound, the activation at 10 ppm in experiment [4] (setting [6]) is 47.7%. This compound gave a glycation inhibition rate in experiment [1] (10 ppm) of 38.95%. The compound further yielded an IC50 in experiment [5] of 0.0024 %w/v.

`O=C1O[C@H]([C@@H](O)CO)C(O)=C1O` [비타민C, reference compound]: the “type I collagen production amount” value in experiment [4] (50 ppm) was found to be 210.9 ng/mL. In experiment [4] (Homo sapiens, Fibroblast, 50 ppm, relative to control, read-out: collagen production increase rate), the activation at 50 ppm worked out at 40.4%. The IC50 in experiment [5] is given as 0.0005 %w/v.

For the compound `COc1c(O)cc2occ(-c3ccc(O)cc3)c(=O)c2c1O` [화합물 3, tectorigenin], the figures for the inhibition at 10 ppm in experiment [2] and in experiment [3] were 51.9% and 32.7%, respectively. Besides, in experiment [4] (10 ppm), the “type I collagen production amount” value came out at 208.1 ng/mL. Further, the activation at 10 ppm in experiment [4] (setting [6]) was found to be 38.5%. In experiment [1] (10 ppm), this compound showed a glycation inhibition rate of 34.75%. In experiment [5], this compound had an IC50 of 0.0012 %w/v.
